{
  "source": "patent US20060069157A1",
  "about": "“Method of ameliorating or abrogating the effects of a neurodegenerative disorder, such as Huntington's disease, by sodium butyrate chemotherapy” (U.S. DEPARTMENT OF VETERANS AFFAIRS, priority 2004, published 2006)",
  "key": {"[1]": {"test_system": "MKP-1, α-globin, β-globin, preproenkephalin mRNA", "experiment": "Real-time PCR of brain mRNAs", "type": "in vivo, mouse", "settings": "Striatum, percentage of untreated R6/2, normalized to β-actin", "description": "Real-time PCR: Reverse transcription of 1 Êg total RNA was conducted with a SuperScript™ First-Strand Synthesis System for RT-PCR (Invitrogen) using random hexamer primers per the manufacturer's instructions. Quantitative real-time PCR studies utilized a Bio-Rad iCycler to follow the amplification of cDNA products by using SYBR_ Green PCR Master Mix (Applied Biosystems) through 50 PCR cycles (95_C for 30 s, 57_C for 1 min, 72_C for 1.5 min). Specific amplification of the target sequences was determined by melt curve analysis and DNA sequencing. Primer pair sequences were as follows: Preproenkephalin (XM—131313) GTGTCCAGGCCCGAGTTC and […]; MKP-1 (NM_013642) […] and […]; _-globin (NM_008218) CCACCCTGCCGATTTCA and CCGCAGMGGCAGCTTAAC; _-globin (NM_008220) […] and CCCAGCACAATCACGATCA; _-actin (X03672) AGGTATCCTGACCCTGAAG and […]. Expression of the mRNAs of interest was calculated using the equation: V=(1+E reference)(C t reference)/(1+E target) (C t target) to correct for potential differences in RNA input and PCR primer efficiencies (Livak and Schmittgen, 2001). V=relative value of target gene normalized to reference (_-actin), E=primer efficiency, C t=threshold crossing cycle number. Differences between genotype and treatment groups were assessed using an unpaired, two-tailed Student's t-test."}, "[2]": {"test_system": "R6/2 transgenic mouse model of HD", "experiment": "Rotarod motor performance in R6/2 mice", "type": "in vivo", "settings": "at 90 days, vs PBS-treated R6/2 mice", "description": "(§1) Intraperitoneal Dosing: Based upon previous studies (Egorin et al., 1999), a dose response study was performed, treating groups of wild type mice (n=10) and littermate R6/2 mice (n=20) with 100, 200, 400, 600, 1,200, 5,000, and 10,000 mg/kg daily intraperitoneal injection (100 Êl) of sodium butyrate (Acros Organics/Fisher Scientific) dissolved in PBS and made fresh daily. Control groups were treated with PBS injection or untreated. Approximately 240 mice were used for behavioral and survival analyses.\n(§2) Clinical Assessment: Both motor performance and body weight were measured throughout the study. Training sessions were given on days 21 and 22 to acclimate the mice to the rotarod apparatus (Columbus Instruments, Columbus, Ohio). Motor performance (constant rotation at 16 rpm) was assessed weekly from 23-63 days of age and twice weekly from 63 days of age in the sodium butyrate-treated, PBS-treated R6/2 mice, and wild type littermate control mice. Three 60 sec trials were given during each session and averaged. Body weights were recorded twice weekly at the same time of day in all groups.\nStatistics: The data are expressed as the mean+standard error of the mean. Statistical comparisons of rotarod, weight data, and histology data were compared by ANOVA or repeated measures ANOVA. Survival data was analyzed by the Kaplan-Meier survival curves."}, "[3]": {"test_system": "huntingtin-positive aggregates", "experiment": "Huntingtin aggregate stereology and ubiquitin inclusions in neostriatum", "type": "in vivo, mouse", "settings": "1.2 g/kg/d i.p. from 21 days; at 90 days; vs PBS-treated R6/2", "description": "Neuropathological Evaluation of Sodium Butyrate Treatment: Beginning at 21 days, R6/2 transgenic mice and wild-type littermate control mice were treated daily with the most optimal dose of sodium butyrate (1.2 g/kg), as determined by survival studies, or PBS intraperitoneal injections. Groups of 10 animals from each treatment paradigm were deeply anesthetized and transcardially perfused with 4% buffered paraformaldehyde at 90 days of age. Forty mice were used for neuropathological analysis, as previously described (Ferrante et al., 2002). […]\nStereology/Quantitation: Serial-cut coronal tissue-sections beginning from the most rostral segment of the neostriatum to the level of the anterior commissure (Inter aural 5.34 mm/Bregma 1.54 mm to Inter aural 3.7 mm/Bregma −0.10 mm), were used for huntingtin aggregate analysis. […] Striatal neuron areas were analyzed by microscopic videocapture using a Windows-based image analysis system for area measurement (Optimas, Bioscan Incorporated, Edmonds, Wash.). […] Cross-sectional areas were analyzed using Statview."}, "Body weight in R6/2 mice": {"experiment": "Body weight in R6/2 mice", "type": "in vivo, mouse", "settings": "same plateau in PBS-treated mice", "description": "as §1, §2"}, "huntingtin transgene": {"test_system": "huntingtin transgene", "experiment": "Transgene expression (Western blot, whole brain, 1C2 antibody)", "type": "in vivo, mouse", "settings": "1.2 g/kg/d; R6/2 whole brain; vs PBS-treated R6/2", "description": "Transgene Expression: Transgene expression was determined in whole brain by Western blot analysis of groups (n=6) of sodium butyrate-treated (1.2 g/kg/d) and untreated R6/2 mice. Brain tissue was homogenized in a protease inhibitor cocktail buffer (Complete, Roche). Twenty Êg of protein (supernatant fraction) was resolved on 10% SDS-polyacrylamide gel (BioRad), transferred to PVDF membrane (BioRad), and probed with 1C2 antibody (Euromedex, France) specific for regions of expanded huntingtin, using a horseradish conjugated anti-rabbit secondary antibody, followed by chemiluminescent detection (Western Lightening™, New England Nuclear), and run with parallel blots probed against (-tubulin to normalize for gel loading."}},
  "note": "Entries after “also recorded” stand apart in the source; their conditions may differ. Marks after values point to notes of the source that are not given here.",
  "data": [
    {"compound": "CCCC(=O)[O-].[Na+]", "note": "[sodium butyrate]", "values": [
      {"measurement": "PCR, NaBu Txd R6/2 vs R6/2", "setting": "[1]; MKP-1 mRNA, p<0.05", "result": 181, "unit": "%^a"},
      {"measurement": "PCR, NaBu Txd R6/2 vs R6/2", "setting": "[1]; Preproenkephalin mRNA", "result": 101, "unit": "%"},
      {"measurement": "PCR, NaBu Txd R6/2 vs R6/2", "setting": "[1]; α-globin mRNA, p<0.01", "result": 206, "unit": "%^c"},
      {"measurement": "PCR, NaBu Txd R6/2 vs R6/2", "setting": "[1]; β-globin mRNA, p<0.02", "result": 215, "unit": "%^b"},
      {"measurement": "percentile increase in rotarod performance", "setting": "[2]; 400 mg/kg", "result": 24.0, "unit": "%"},
      {"measurement": "percentile increase in rotarod performance", "setting": "[2]; 600 mg/kg", "result": 27.5, "unit": "%"},
      {"measurement": "percentile increase in rotarod performance", "setting": "[2]; 1,200 mg/kg", "result": 34.9, "unit": "%"},
      {"measurement": "huntingtin-positive striatal aggregates or ubiquitin-positive inclusions", "setting": "[3]", "result": "no significant differences; also recorded: no significant reduction"},
      {"measurement": "body weight plateau until death", "setting": "Body weight in R6/2 mice", "result": "19-20 gms"},
      {"measurement": "huntingtin transprotein expression-levels", "setting": "huntingtin transgene", "result": "no differences"}
    ]}
  ]
}
